{"source": "paper PMC8955139", "about": "“Identifying HSV-1 Inhibitors from Natural Compounds via Virtual Screening Targeting Surface Glycoprotein D” (Pharmaceuticals, 2022)", "key": {"in vitro": {"test": "in vitro", "details": "African green monkey"}, "HSV-1 strain F [1]": {"test_system": "HSV-1 strain F", "test": "Time of addition cytopathic effect (CPE) inhibition assay", "type": "cell-based", "details": "for Antiherpetic activity in the in vitro assays: CPE inhibition, all stages, #28 at 10 µg/mL, #29 at 1 µg/mL"}, "HSV-1 [2]": {"test_system": "HSV-1", "details": "cited from earlier work"}, "[3]": {"test": "Cytotoxicity of ACs, WST-1, 24 h", "details": "African green monkey, VERO cells"}, "VERO cells [4]": {"test_system": "VERO cells", "test": "Cytotoxicity of ACs, WST-1, 24 h", "details": "for Toxicity to the cells: 10 µg/mL; for Highest Concentration with Cell Viability above 75%: 24 h, WST-1, tested 0.1-100 µg/mL; for Toxicity at the highest concentration tested compared with DMSO control: 100 µg/mL"}, "HSV-1 [5]": {"test_system": "HSV-1", "test": "Pre-treatment of cells with AC#7 before HSV-1 infection (Figure S2)", "type": "cell-based"}, "VERO cells [6]": {"test_system": "VERO cells", "test": "Toxicity of AC#7 on VERO cells at high concentration (800 µM, 2 h exposure, 46 h)", "details": "viability 46 h later, WST-1"}, "HSV-1 strain F [7]": {"test_system": "HSV-1 strain F", "test": "Plaque reduction dose-response assay in VERO cells", "type": "cell-based"}, "ACV-resistant HSV-1": {"test_system": "ACV-resistant HSV-1", "design": "method as in PMID 9660995", "details": "in vivo; cited from earlier work"}, "SARS-CoV 3CLpro": {"test_system": "SARS-CoV 3CLpro", "details": "cited from earlier work"}}, "note": "pEC50: −log10 of the molar value. Read-outs that look alike come from different tables or passages of the source."}
{"compound": "O=C1NC(=O)c2c1c1c3ccccc3[nH]c1c1[nH]c3ccccc3c21", "note": "[AC#29, Arcyriaflavin A]", "values": [{"measurement": "viability at 24 h", "setting": "in vitro", "result": 86.2, "unit": "%"}, {"measurement": "Antiherpetic activity in the in vitro assays", "setting": "HSV-1 strain F [1]", "result": "failed to show antiherpetic activity"}]}
{"compound": "Cc1cc(O)c2c(c1)C(=O)c1cc(O)cc(O)c1C2=O", "note": "[emodin]", "values": [{"measurement": "pEC50", "setting": "HSV-1 [2]; antiviral activity", "result": "3.71 to 4.67"}]}
{"compound": "Cc1ccc(Cl)cc1N1CCN(C[C@H]2C(=O)O[C@@H]3C[C@@]4(C)CCC[C@H](C)[C@@]45O[C@H]5[C@@H]32)CC1", "note": "[AC#17, (1Ar,2S,5Ar,6Ar,9S,9Ar,9Bs)-9-( (4-(5-chloro-2-methylphenyl)piperazin-1-yl)methyl)-2,5a-dimethyloctahydro-2H-oxireno[2′,3′:4,4a]naphtho[2,3-b]furan-8(9Bh)-one]", "values": [{"measurement": "viability at 24 h", "setting": "[3]", "result": 96.8, "unit": "%"}, {"measurement": "Toxicity to the cells", "setting": "VERO cells [4]", "result": "exhibited toxicity"}, {"measurement": "Highest Concentration with Cell Viability above 75%", "setting": "VERO cells [4]", "result": 1, "unit": "µg/mL"}]}
{"compound": "O=C(/C=C1\\NCCc2cc3c(cc21)OCO3)c1cc2ccccc2o1", "note": "[AC#7, 1-(1-benzofuran-2-yl)-2-[(5Z)-2H,6H,7H,8H-[1,3]dioxolo [4,5-g]isoquinoline-5-ylidene]ethenone]", "values": [{"measurement": "Antiviral activity when cells were preincubated with AC prior to HSV-1 infection", "setting": "HSV-1 [5]; 10 µg/mL, 1 h before infection, MOI 5, VERO", "result": "No antiviral activity"}, {"measurement": "Cell survival rate", "setting": "HSV-1 [5]; 10 µg/mL, cells pre-treated 1 h, MOI=5, 48 h", "result": 7.7, "unit": "%"}, {"measurement": "inhibition at 10 µg/mL", "setting": "HSV-1 [5]; Human alphaherpesvirus 1, cells pre-treated 1 h, MOI=5, 48 h", "result": 0, "unit": "%"}, {"measurement": "Toxicity to VERO cells", "setting": "VERO cells [6]", "result": "Negligible toxicity"}, {"measurement": "Reduction of virus-induced plaques compared to DMSO control", "setting": "HSV-1 strain F [7]; 25 µM, virus preincubated 1 h, VERO", "result": "significantly reduced the number of virus-induced plaques"}, {"measurement": "Dose dependence of antiviral response", "setting": "HSV-1 strain F [7]; 6.25-400 µM, pre-incubated with the virus, vs DMSO control", "result": "dose-dependent antiviral response"}, {"measurement": "EC50", "setting": "HSV-1 strain F [7]; Human alphaherpesvirus 1, plaque reduction, virus preincubated with AC 1 h, VERO", "result": 61, "unit": "µg/mL"}, {"measurement": "pEC50", "setting": "HSV-1 strain F [7]; Human alphaherpesvirus 1, plaque reduction, virus preincubated with AC 1 h, VERO, asymmetric nonlinear regression R2 = 0.84", "result": 3.74}, {"measurement": "Antiviral activity at the viral inactivation stage", "setting": "HSV-1 strain F [1]; 10 µg/mL, virus preincubated with AC 1 h, MOI 5, VERO, vs DMSO control", "result": "significantly higher activity than the DMSO control"}, {"measurement": "viability at 24 h", "setting": "[3]", "result": 124, "unit": "%"}, {"measurement": "Toxicity at the highest concentration tested compared with DMSO control", "setting": "VERO cells [4]", "result": "negligible toxicity"}, {"measurement": "Highest Concentration with Cell Viability above 75%", "setting": "VERO cells [4]", "result": ">100", "unit": "µg/mL"}]}
{"compound": "O=c1c(-c2c3cn[nH]c3nc3c2oc2cc(O)ccc23)cc2cccc3c2n1CC3", "note": "[AC#27]", "values": [{"measurement": "Antiviral activity at the post-entry stage", "setting": "HSV-1 strain F [1]; 10 µg/mL, AC added 1 h after infection, MOI 5, VERO", "result": "possess antiherpetic activity"}, {"measurement": "viability at 24 h", "setting": "[3]", "result": 106, "unit": "%"}, {"measurement": "Toxicity at the highest concentration tested compared with DMSO control", "setting": "VERO cells [4]", "result": "negligible toxicity"}, {"measurement": "Highest Concentration with Cell Viability above 75%", "setting": "VERO cells [4]", "result": ">100", "unit": "µg/mL"}]}
{"compound": "C[C@H]1CCC[C@]2(C)C[C@H]3OC(=O)[C@H](CN4CCN(c5ccccc5)CC4)[C@H]3[C@@H]3O[C@@]132", "note": "[AC#16, (1Ar,2S,5Ar,6Ar,9S,9Ar,9Bs)-2,5a-dimethyl-9-((4-phenylpiperazin-1-yl)methyl)octahydro-2H-oxireno[2′,3′:4,4a]naphtho[2,3-b]furan-8(9Bh)-one]", "values": [{"measurement": "viability at 24 h", "setting": "[3]", "result": 102, "unit": "%"}, {"measurement": "Toxicity to the cells", "setting": "VERO cells [4]", "result": "exhibited toxicity"}, {"measurement": "Highest Concentration with Cell Viability above 75%", "setting": "VERO cells [4]", "result": 1, "unit": "µg/mL"}]}
{"compound": "CC[C@@H](NC(=O)[C@@H](CC(=O)[C@@H](CC(=O)[C@@H](NC(=O)[C@H](C(C)C)N(C)C(=O)[C@H](C)CC1CCCCC1)C(C)(C)C)CC(=O)C(C)(C)C)C1(C(=O)O)CCCC1)C(C)(C)C", "note": "[BILD 1633 SE]", "values": [{"measurement": "Therapeutic effect against ACV-resistant HSV-1 infections", "setting": "ACV-resistant HSV-1", "result": "potent therapeutic effect"}, {"measurement": "Antiviral activity in vitro relative to ACV", "setting": "HSV-1 [2]; in vitro", "result": "higher antiviral activity than ACV"}]}
{"compound": "O=C(CC1NC(=O)c2ccccc21)Nc1ccc2c(c1)C(=O)N1CCC[C@H]1C(=O)N2", "note": "(stereo partly drawn) [AC#28, N-((S)-5,11-dioxo-2,3,5,10,11,11a-hexahydro-1H-benzo[e]pyrrolo[1,2-a][1,4]diazepin-7-yl)-2-(3-oxoisoindolin-1-yl)acetamide]", "values": [{"measurement": "Antiherpetic activity in the in vitro assays", "setting": "HSV-1 strain F [1]", "result": "failed to show antiherpetic activity"}, {"measurement": "viability at 24 h", "setting": "[3]", "result": 105, "unit": "%"}, {"measurement": "Toxicity at the highest concentration tested compared with DMSO control", "setting": "VERO cells [4]", "result": "negligible toxicity"}, {"measurement": "Highest Concentration with Cell Viability above 75%", "setting": "VERO cells [4]", "result": ">100", "unit": "µg/mL"}]}
{"compound": "Nc1nc2c(ncn2COCCO)c(=O)[nH]1", "note": "[ACV, 9-((2-Hydroxyethoxy)methyl) guanine, reference compound]", "values": [{"measurement": "pEC50", "setting": "HSV-1 [2]; in vitro", "result": "~6.00"}, {"measurement": "pEC50", "setting": "HSV-1 strain F [7]; Human alphaherpesvirus 1, plaque reduction, added post-HSV infection, VERO, R2 > 0.99", "result": 6.11}]}
{"compound": "CN1CCN(C(=O)CCn2c3c(c4ccccc42)CCn2c-3nc3ccccc3c2=O)CC1", "note": "[AC#10, 13-[3-(4-methylpiperazin-1-yl)-3-oxopropyl]-8,13-dihydroindolo[2′,3′:3,4] pyrido [2,1-b]quinazolin-5(7H)-one]", "values": [{"measurement": "viability at 24 h", "setting": "[3]", "result": 73.2, "unit": "%"}, {"measurement": "Toxicity to the cells", "setting": "VERO cells [4]", "result": "exhibited toxicity"}, {"measurement": "Highest Concentration with Cell Viability above 75%", "setting": "VERO cells [4]", "result": 1, "unit": "µg/mL"}]}
{"compound": "O=C(O[C@@H]1Cc2c(O)cc(O)cc2O[C@@H]1c1cc(O)c(O)c(O)c1)c1cc(O)c(O)c(O)c1", "note": "[epigallocatechin gallate]", "values": [{"measurement": "pEC50", "setting": "HSV-1 [2]; antiviral activity", "result": "4.30 to 4.90"}]}
{"compound": "COc1cc(/C=C/C(=O)CC(=O)/C=C/c2ccc(O)c(OC)c2)ccc1O", "note": "[curcumin]", "values": [{"measurement": "pEC50", "setting": "HSV-1 [2]; antiviral activity", "result": 4.05}]}
{"compound": "CCOC(=O)/C=C/[C@H](C[C@@H]1CCNC1=O)NC(=O)[C@@H](CC(=O)[C@@H](NC(=O)c1cc(C)on1)C(C)C)Cc1ccc(F)cc1", "note": "[rupintrivir]", "values": [{"measurement": "Inhibition of SARS-CoV 3CLpro", "setting": "SARS-CoV 3CLpro", "result": "weak to undetectable inhibition"}]}
